# Measured values from patent US10875850B2, “Pesticidally active azetidine sulfones amide isoxazoline derivatives” (SYNGENTA PARTICIPATIONS AG, priority 2016, dated 2020).
# Legend:
# Type in all cases: in vivo
# Spodoptera littoralis [1] = experiment: Comparative Example C2: Spodoptera littoralis, feeding/contact activity, various application rates; conditions: 3 days after infestation
# Description: (§1) Cotton leaf discs were placed onto agar in 24-well microtiter plates and sprayed with aqueous test solutions prepared from 10′000 ppm DMSO stock solutions. After drying the leaf discs were infested with five L1 larvae. The samples were assessed for mortality (%) 3 days after infestation at the various application rates. Example C3: Tetranychus urticae (Two-Spotted Spider Mite): Feeding/Contact Activity Bean leaf discs on agar in 24-well microtiter plates were sprayed with aqueous test solutions prepared from 10′000 ppm DMSO stock solutions. After drying the leaf discs were infested with a mite population of mixed ages. The samples were assessed for mortality on mixed population (%) (mobile stages) 8 days after infestation at the various application rates.
# Plutella xylostella [2] = experiment: Comparative Example C1: Plutella xylostella, feeding/contact activity, various application rates; conditions: 5 days after infestation
# Description: 24-well microtiter plates with artificial diet were treated with aqueous test solutions prepared from 10′000 ppm DMSO stock solutions by pipetting. After drying, the plates were infested with L2 larvae (10 to 15 per well). The samples were assessed for mortality (%) 5 days after infestation at the various application rates.
# Thrips tabaci [3] = experiment: Comparative Example C4: Thrips tabaci, feeding/contact activity, various application rates; conditions: 6 days after infestation
# Description: (§2) Sunflower leaf discs were placed on agar in 24-well microtiter plates and sprayed with aqueous test solutions prepared from 10′000 ppm DMSO stock solutions. After drying the leaf discs were infested with a thrips population of mixed ages. The samples were assessed for mortality (%) 6 days after infestation at the various application rates.
# Tetranychus urticae [4] = experiment: Comparative Example C3: Tetranychus urticae, feeding/contact activity, various application rates; conditions: 8 days after infestation
# Description: as §1
# Spodoptera littoralis [5] = experiment: Example B5: Spodoptera littoralis (Egyptian cotton leaf worm), feeding/contact activity; conditions: 72 h
# Description: Cotton leaf discs were placed onto agar in 24-well microtiter plates and sprayed with aqueous test solutions prepared from 10′000 ppm DMSO stock solutions. After drying the leaf discs were infested with five L1 larvae. The samples were assessed for mortality 3 days after infestation.
# Plutella xylostella [6] = experiment: Example B4: Plutella xylostella (diamond back moth), artificial diet; conditions: 120 h, read-out: effect in at least one of the two categories (mortality or growth inhibition)
# Description: (§3) 24-well microtiter plates with artificial diet were treated with aqueous test solutions prepared from 10′000 ppm DMSO stock solutions by pipetting. After drying, the plates were infested with L2 larvae (10 to 15 per well). The samples were assessed for mortality and growth inhibition in comparison to untreated samples 5 days after infestation. The following compounds gave an effect of at least 80% in at least one of the two categories (mortality or growth inhibition) at an application rate of 200 ppm: A01, A02, A03, A04, A05, A06, A07, A08, A09, A10, A11, A12, A13, A14, A15, A16, A17, A18, A19, A20, A21, A22, A23, A24, A25, A26, A27, A28, B01
# Euschistus heros = experiment: Example B2: Euschistus heros (neotropical brown stink bug), soybean leaves sprayed; conditions: 120 h, read-out: effect in at least one of the two categories (mortality or growth inhibition)
# Description: Soybean leaves on agar in 24-well microtiter plates were sprayed with aqueous test solutions prepared from 10′000 ppm DMSO stock solutions. After drying the leaves were infested with N2 nymphs. The samples were assessed for mortality and growth inhibition in comparison to untreated samples 5 days after infestation. The following compounds gave an effect of at least 80% in at least one of the two categories (mortality or growth inhibition) at an application rate of 200 ppm: A01, A02, A03, A04, A05, A06, A07, A08, A09, A10, A11, A12, A13, A14, A15, A16, A17, A18, A19, A20, A21, A22, A23, A24, A25, A26, A27, A28, B01
# Thrips tabaci [7] = experiment: Example B7: Thrips tabaci (onion thrips), feeding/contact activity; conditions: 144 h
# Description: as §2, with “mortality” for “mortality (%)”, “infestation.” for “infestation at the various application rates.”
# Tetranychus urticae [8] = experiment: Example B6: Tetranychus urticae (two-spotted spider mite), feeding/contact activity; conditions: 192 h, read-out: mortality on mixed population (mobile stages)
# Description: Bean leaf discs on agar in 24-well microtiter plates were sprayed with aqueous test solutions prepared from 10′000 ppm DMSO stock solutions. After drying the leaf discs were infested with a mite population of mixed ages. The samples were assessed for mortality on mixed population (mobile stages) 8 days after infestation.
# Diabrotica balteata = experiment: Example B1: Diabrotica balteata (corn root worm), maize sprouts sprayed; conditions: 96 h, read-out: effect in at least one of the two categories (mortality or growth inhibition)
# Description: as §3, with “Maize sprouts placed onto an agar layer in 24-well” for “24-well”, “plates” for “plates with artificial diet”, “by spraying.” for “by pipetting.”, “larvae (6” for “larvae (10”, “to 10” for “to 15”, “samples 4” for “samples 5”
# Myzus persicae [9] = experiment: Example B3: Myzus persicae (green peach aphid), intrinsic activity; conditions: 120 h
# Description: Test compounds prepared from 10′000 ppm DMSO stock solutions were applied by pipette into 24-well microtiter plates and mixed with sucrose solution. The plates were closed with a stretched Parafilm. A plastic stencil with 24 holes was placed onto the plate and infested pea seedlings were placed directly on the Parafilm. The infested plate was closed with a gel blotting paper and another plastic stencil and then turned upside down. The samples were assessed for mortality 5 days after infestation.
# Myzus persicae [10] = experiment: Example B8: Myzus persicae (green peach aphid), feeding/contact activity; conditions: 144 h
# Description: Sunflower leaf discs were placed onto agar in a 24-well microtiter plate and sprayed with aqueous test solutions prepared from 10′000 ppm DMSO stock solutions. After drying, the leaf discs were infested with an aphid population of mixed ages. The samples were assessed for mortality 6 days after infestation.
smiles,measurement,setting,value
Cc1cc(C2=NOC(c3cc(Cl)cc(Cl)c3)(C(F)(F)F)C2)ccc1C(=O)NC1CN(S(C)(=O)=O)C1 (centres unmarked) [Compound A02],Spodoptera littoralis larval average mortality (%),Spodoptera littoralis [1]; application rate 0.195 ppm,50%
same,Spodoptera littoralis larval average mortality (%),Spodoptera littoralis [1]; application rate 0.781 ppm,100%
same,Spodoptera littoralis larval average mortality (%),Spodoptera littoralis [1]; application rate 3.12 ppm,100%
same,Spodoptera littoralis larval average mortality (%),Spodoptera littoralis [1]; application rate 12.5 ppm,100%
same,Spodoptera littoralis larval average mortality (%),Spodoptera littoralis [1]; application rate 50 ppm,100%
same,Spodoptera littoralis larval average mortality (%),Spodoptera littoralis [1]; application rate 200 ppm,100%
same,Plutella xylostella larval average mortality (%),Plutella xylostella [2]; application rate 0.195 ppm,80%
same,Plutella xylostella larval average mortality (%),Plutella xylostella [2]; application rate 0.781 ppm,100%
same,Plutella xylostella larval average mortality (%),Plutella xylostella [2]; application rate 3.12 ppm,100%
same,Plutella xylostella larval average mortality (%),Plutella xylostella [2]; application rate 12.5 ppm,100%
same,Plutella xylostella larval average mortality (%),Plutella xylostella [2]; application rate 50 ppm,100%
same,Plutella xylostella larval average mortality (%),Plutella xylostella [2]; application rate 200 ppm,100%
same,Thrips tabaci mixed population average mortality (%),Thrips tabaci [3]; application rate 0.195 ppm,0%
same,Thrips tabaci mixed population average mortality (%),Thrips tabaci [3]; application rate 0.781 ppm,100%
same,Thrips tabaci mixed population average mortality (%),Thrips tabaci [3]; application rate 3.12 ppm,100%
same,Thrips tabaci mixed population average mortality (%),Thrips tabaci [3]; application rate 12.5 ppm,100%
same,Thrips tabaci mixed population average mortality (%),Thrips tabaci [3]; application rate 50 ppm,100%
same,Thrips tabaci mixed population average mortality (%),Thrips tabaci [3]; application rate 200 ppm,100%
same,Tetranychus urticae mixed population average mortality (%),Tetranychus urticae [4]; application rate 0.195 ppm,0%
same,Tetranychus urticae mixed population average mortality (%),Tetranychus urticae [4]; application rate 0.781 ppm,50%
same,Tetranychus urticae mixed population average mortality (%),Tetranychus urticae [4]; application rate 3.12 ppm,100%
same,Tetranychus urticae mixed population average mortality (%),Tetranychus urticae [4]; application rate 12.5 ppm,100%
same,Tetranychus urticae mixed population average mortality (%),Tetranychus urticae [4]; application rate 50 ppm,100%
same,Tetranychus urticae mixed population average mortality (%),Tetranychus urticae [4]; application rate 200 ppm,100%
"CCS(=O)(=O)N1CC(NC(=O)c2ccc(C3=NO[C@@](c4cc(Cl)cc(Cl)c4)(C(F)(F)F)C3)cc2C)C1 [Compound A11, 4-[(5S)-5-(3,5-dichlorophenyl)-5-(trifluoromethyl)-4H-isoxazol-3-yl]-N-(1-ethylsulfonylazetidin-3-yl)-2-methyl-benzamide]",mortality at 200 ppm,Spodoptera littoralis [5],≥ 80%
same,percent control (mortality or growth inhibition) at 200 ppm,Plutella xylostella [6],≥ 80%
same,percent control (mortality or growth inhibition) at 200 ppm,Euschistus heros,≥ 80%
same,mortality at 200 ppm,Thrips tabaci [7],≥ 80%
same,mortality at 200 ppm,Tetranychus urticae [8],≥ 80%
same,percent control (mortality or growth inhibition) at 200 ppm,Diabrotica balteata,≥ 80%
same,mortality at 12 ppm,Myzus persicae [9],≥ 80%
"CS(=O)(=O)N1CC(NC(=O)c2ccc(C3=NOC(c4cc(Cl)c(F)c(Cl)c4)(C(F)(F)F)C3)c3c2CCC3)C1 (centres unmarked) [Compound B01, 7-[5-(3,5-dichloro-4-fluoro-phenyl)-5-(trifluoromethyl)-4H-isoxazol-3-yl]-N-(1-methylsulfonylazetidin-3-yl)indane-4-carboxamide]",mortality at 200 ppm,Spodoptera littoralis [5],≥ 80%
same,mortality at 200 ppm,Myzus persicae [10],≥ 80%
same,percent control (mortality or growth inhibition) at 200 ppm,Plutella xylostella [6],≥ 80%
same,percent control (mortality or growth inhibition) at 200 ppm,Euschistus heros,≥ 80%
same,mortality at 200 ppm,Thrips tabaci [7],≥ 80%
same,mortality at 200 ppm,Tetranychus urticae [8],≥ 80%
same,percent control (mortality or growth inhibition) at 200 ppm,Diabrotica balteata,≥ 80%
